According to US20260008758A1, “LINEAR DIPEPTIDYL PEPTIDASE 1 INHIBITORS AND USES THEREOF” (Insmed Incorporated, priority 2024, published 2026):

Legend:
[1] = target: active mouse DPP1 enzyme (Mus musculus (Mouse), UniProt P97821); experiment: Mouse DPP1 enzyme IC50 assay; assay type: biochemical; conditions: active mouse DPP1, H-Gly-Arg-AMC substrate 400 μM
Protocol: 25 μL of compound in Assay Buffer plus 5% DMSO was first added to 50 μL of active mouse DPP1 enzyme at a concentration of 62.5 pg/μL and allowed to pre-incubate for 10 minutes at 37° C. after which 50 μL of 1000 μM H-Gly-Arg-AMC substrate (Bachem; St. Torrance, CA) was added, giving final substrate concentration of 400 μM and a final DMSO concentration of 1%. Substrate cleavage was measured for 90 minutes at 37° C., with fluorescence at Excitation/Emission 350/450 nm measured every 5 minutes. DPP1 concentration was interpolated based on its activity relative to a standard curve of recombinant active mouse DPP1 enzyme. IC50 values for each compound were calculated via the XLFit (IDBS Version 5.3.1.3) Add-On to Microsoft Excel using the four parameter fit equation y=(A+((B-A)/(1+((C/x)^D)))), which appears as equation number 205 (4 Parameter Logistic Model or Sigmoidal Dose-Response Model) in XLFit. Default constraints were used for each Parameter.

[2] = target: human DPP1 enzyme (Homo sapiens (Human), UniProt P53634); experiment: Human DPP1 enzyme IC50 assay; assay type: biochemical; conditions: recombinant human DPP1, H-Gly-Arg-AMC substrate 400 μM
Chain of human DPP1 enzyme (P53634 25-134): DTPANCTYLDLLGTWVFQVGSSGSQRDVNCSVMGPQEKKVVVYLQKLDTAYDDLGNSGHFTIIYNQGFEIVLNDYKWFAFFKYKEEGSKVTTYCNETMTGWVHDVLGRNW
Chain of human DPP1 enzyme (P53634 231-394): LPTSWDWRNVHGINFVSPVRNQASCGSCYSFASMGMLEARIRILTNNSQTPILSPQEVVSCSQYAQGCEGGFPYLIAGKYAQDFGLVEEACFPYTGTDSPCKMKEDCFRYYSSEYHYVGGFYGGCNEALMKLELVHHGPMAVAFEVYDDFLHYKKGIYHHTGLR
Chain of human DPP1 enzyme (P53634 395-463): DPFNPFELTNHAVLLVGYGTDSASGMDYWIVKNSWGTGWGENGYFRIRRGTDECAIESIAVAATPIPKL
How it was run: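 Fluorogenic readout (350/450 nm, every 5 min over 90 min, 37°C) of H-Gly-Arg-AMC cleavage at 400 μM final substrate. Compounds met activated DPP1 first for a 10-min 37°C pre-incubation in MES buffer pH 6.0 with DTT, 1% DMSO final. Four-parameter sigmoidal fit gave IC50.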

[3] = target: DPP1 in HL-60 cells (Homo sapiens (Human), UniProt P53634); experiment: DPP1 Cell IC50 assay; assay type: cell-based; conditions: H-Gly-Phe-AFC substrate, 60 min pre-incubation
Chain of DPP1 in HL-60 cells (P53634 25-134): as the sequence (P53634 25-134) above
Chain of DPP1 in HL-60 cells (P53634 231-394): as the sequence (P53634 231-394) above
Chain of DPP1 in HL-60 cells (P53634 395-463): as the sequence (P53634 395-463) above
Protocol: Media was changed every three to four days and cells were not allowed to exceed 1×10^6 cells per mL. Prior to assay, cells were collected by centrifugation at 500 rcf for 3 minutes, resuspended in PBS and counted. Cells were diluted in PBS to a concentration of 5×10^5 live cells per mL and transferred to black 96-well plates for assay, 60 μL per well. Test articles were diluted in PBS plus 0.5% DMSO, and 20 μL was added to each assay well. Compound was allowed to pre-incubate with cells with gentle shaking at 100 rpm for 60 minutes at 37° C. in a cell culture incubator maintained at 5% CO2, after which 20 μL of 500 μM H-Gly-Phe-AFC substrate (MP Biomedicals; Solon, OH) was added to each well. Plates were returned to the incubator with shaking at 100 rpm for 30 minutes, after which fluorescence was measured at Excitation/Emission 400/505 nm. % Inhibition was calculated from RFU values compared to control cell wells that received only PBS plus 0.5% DMSO. IC50 values for each compound were calculated via the XLFit (IDBS Version 5.3.1.3) Add-On to Microsoft Excel using the four parameter fit equation y=(A+((B-A)/(1+((C/x)^D)))), which appears as equation number 205 (4 Parameter Logistic Model or Sigmoidal Dose-Response Model) in XLFit.

Chain of active mouse DPP1 enzyme (P97821 25-134): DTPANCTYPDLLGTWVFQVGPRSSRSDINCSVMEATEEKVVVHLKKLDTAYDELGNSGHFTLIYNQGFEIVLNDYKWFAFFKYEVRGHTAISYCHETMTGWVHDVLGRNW
Chain of active mouse DPP1 enzyme (P97821 231-393): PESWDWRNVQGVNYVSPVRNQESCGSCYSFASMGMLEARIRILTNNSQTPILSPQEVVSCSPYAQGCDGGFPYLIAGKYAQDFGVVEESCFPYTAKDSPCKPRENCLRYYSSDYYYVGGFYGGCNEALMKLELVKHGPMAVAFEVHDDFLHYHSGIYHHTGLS
Chain of active mouse DPP1 enzyme (P97821 394-462): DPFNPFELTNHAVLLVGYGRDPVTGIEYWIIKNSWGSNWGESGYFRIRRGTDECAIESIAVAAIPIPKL

In the case of `Cn1c(=O)oc2ccc(-c3ccc(C[C@@H](C#N)NC(=O)CNC(=O)c4cccs4)cc3)cc21` [Compound 239, N-[(1S)-1-cyano-2-[4-(3-methyl-2-oxo-1,3-benzoxazol-5-yl)phenyl]ethyl]-2-(thiophen-2-ylformamido)acetamide], the IC50 [1] is reported as ≥ 20 nM.

With `CCN1C(=O)Cc2ccc(-c3ccc(C[C@@H](C#N)NC(=O)[C@](C)(N)C4CCCC4)c(F)c3)cc21` [Compound 264B, (2R)-2-amino-N-[(1S)-1-cyano-2-[4-(1-ethyl-2-oxo-3H-indol-6-yl)-2-fluorophenyl]ethyl]-2-cyclopentylpropanamide] the IC50 [2] was ≤ 5 nM and the IC50 [3] was 1 to 2.5 nM.

In the case of `Cn1c(=O)oc2ccc(-c3ccc(C[C@@H](C#N)NC(=O)[C@@H](N)Cc4cccnc4)cc3)cc21` [Compound 202, (S)-2-amino-N—((S)-1-cyano-2-(4-(3-methyl-2-oxo-2,3-dihydrobenzo[d]oxazol-5-yl)phenyl)ethyl)-3-(pyridin-3-yl)propanamide], the IC50 [2] is reported as 5 to 15 nM and the IC50 [3] is reported as ≥ 2.5 nM.

For `C[C@@H](NCc1cccs1)C(=O)N[C@H](C#N)Cc1ccc(-c2ccc3oc(=O)n(C)c3c2)cc1` [Compound 232, (2R)—N-[(1S)-1-cyano-2-[4-(3-methyl-2-oxo-1,3-benzoxazol-5-yl)phenyl]ethyl]-2-[(thiophen-2-ylmethyl)amino]propanamide], the IC50 [2] was ≥ 15 nM and the IC50 [3] was ≥ 2.5 nM.

Compound `CN(C)C[C@H](O)C(=O)N[C@H](C#N)Cc1ccc(-c2ccc3nnn(C)c3c2)cc1F` [Compound 141, (2S)—N-[(1S)-1-cyano-2-[2-fluoro-4-(3-methyl-1,2,3-benzotriazol-5-yl)phenyl]ethyl]-3-(dimethylamino)-2-hydroxypropanamide] has an IC50 [2] of 5 to 15 nM and an IC50 [3] of 1 to 2.5 nM.

In the case of `Cn1c(=O)oc2ccc(-c3ccc(C[C@@H](C#N)NC(=O)C(C)(N)C4CCCC4)cc3)cc21` (stereo partly drawn) [Compound 219, 2-amino-N-[(1S)-1-cyano-2-[4-(3-methyl-2-oxo-1,3-benzoxazol-5-yl)phenyl]ethyl]-2-cyclopentylpropanamide], the IC50 [2] is reported as ≤ 5 nM and the IC50 [3] is reported as 1 to 2.5 nM.

With `COCCN(C)CCn1c(=O)oc2ccc(-c3ccc(C[C@@H](C#N)NC(=O)[C@@](C)(N)C4CCC4)c(F)c3)cc21` [Compound 270A, (2S)-2-amino-N-[(1S)-1-cyano-2-[2-fluoro-4-(3-{2-[(2-methoxyethyl)(methyl)amino]ethyl}-2-oxo-1,3-benzoxazol-5-yl)phenyl]ethyl]-2-cyclobutylpropanamide] the IC50 [2] was ≥ 15 nM and the IC50 [3] was ≥ 2.5 nM.

With `CN(C)C[C@H](O)C(=O)N[C@H](C#N)Cc1ccc(-c2ccc3oc(=O)n(CCN4CCOCC4)c3c2)cc1F` [Compound 142, (2S)—N-[(1S)-1-cyano-2-(2-fluoro-4-{3-[2-(morpholin-4-yl)ethyl]-2-oxo-1,3-benzoxazol-5-yl}phenyl)ethyl]-3-(dimethylamino)-2-hydroxypropanamide] the IC50 [2] was 5 to 15 nM and the IC50 [3] was ≥ 2.5 nM.

For `CO[C@@H](CN)C(=O)N[C@H](C#N)Cc1ccc(-c2ccc3oc(=O)n(C)c3c2)cc1` [Compound 103, (2S)-3-amino-N-[(1S)-1-cyano-2-[4-(3-methyl-2-oxo-1,3-benzoxazol-5-yl)phenyl]ethyl]-2-methoxypropanamide], the IC50 [2] was ≥ 15 nM and the IC50 [3] was ≥ 2.5 nM.

In the case of `Cn1c(=O)oc2ccc(-c3ccc(C[C@@H](C#N)NC(=O)C(N)Cc4ccon4)cc3)cc21` (stereo partly drawn) [Compound 231, 2-amino-N-[(1S)-1-cyano-2-[4-(3-methyl-2-oxo-1,3-benzoxazol-5-yl)phenyl]ethyl]-3-(1,2-oxazol-3-yl)propanamide], the IC50 [2] is reported as ≤ 5 nM and the IC50 [3] is reported as ≥ 2.5 nM.

With `Cn1c(=O)oc2ccc(-c3ccc(C[C@@H](C#N)NC(=O)[C@@H](N)[C@H]4CCc5ccccc54)cc3)cc21` [Compound 207, (S)-2-amino-N—((S)-1-cyano-2-(4-(3-methyl-2-oxo-2,3-dihydrobenzo[d]oxazol-5-yl)phenyl)ethyl)-2-((S)-2,3-dihydro-1H-inden-1-yl)acetamide] the IC50 [2] was ≥ 15 nM and the IC50 [3] was ≥ 2.5 nM.

For `CN(C)C[C@H](O)C(=O)N[C@H](C#N)Cc1ccc(-c2ccc3c(c2)C2(CCCN(C)C2)C(=O)N3C)cc1` (stereo partly drawn) [Compound 145, (2S)—N-[(1S)-1-cyano-2-(4-{1,1′-dimethyl-2-oxospiro[indole-3,3′-piperidin]-5-yl}phenyl)ethyl]-3-(dimethylamino)-2-hydroxypropanamide], the IC50 [2] was ≥ 15 nM and the IC50 [3] was 1 to 2.5 nM.

For `CN1CCC2(CCc3ccc(-c4ccc(C[C@@H](C#N)NC(=O)C(C)(N)C5CCC5)c(F)c4)cc32)CC1` (stereo partly drawn) [Compound 269, 2-amino-N—((S)-1-cyano-2-(2-fluoro-4-(1′-methyl-2,3-dihydrospiro[indene-1,4′-piperidin]-6-yl)phenyl)ethyl)-2-cyclobutylpropanamide], the IC50 [2] was ≤ 5 nM and the IC50 [3] was ≥ 2.5 nM.

For `CO[C@@H](CN(C)C)C(=O)N[C@H](C#N)Cc1ccc(-c2ccc3oc(=O)n(C)c3c2)cc1` [Compound 105, (2S)—N-[(1S)-1-cyano-2-[4-(3-methyl-2-oxo-1,3-benzoxazol-5-yl)phenyl]ethyl]-3-(dimethylamino)-2-methoxypropanamide], the IC50 [2] was ≥ 15 nM and the IC50 [3] was 1 to 2.5 nM.

For `CN(C)C[C@H](O)C(=O)N[C@H](C#N)Cc1ccc(-c2ccc3cnn(C4CCN(C5COC5)CC4)c3c2)cc1F` [Compound 287, (2S)—N-[(1S)-1-cyano-2-(2-fluoro-4-{1-[1-(oxetan-3-yl)piperidin-4-yl]indazol-6-yl}phenyl)ethyl]-3-(dimethylamino)-2-hydroxypropanamide], the IC50 [2] was 5 to 15 nM and the IC50 [3] was ≥ 2.5 nM.

`COCCN(C)CCn1c(=O)oc2ccc(-c3ccc(C[C@@H](C#N)NC(=O)[C@](C)(N)C4CCCC4)cc3)cc21` [Compound 258B, (2R)-2-amino-N-[(1S)-1-cyano-2-[4-(3-{2-[(2-methoxyethyl)(methyl)amino]ethyl}-2-oxo-1,3-benzoxazol-5-yl)phenyl]ethyl]-2-cyclopentylpropanamide] was tested, and the IC50 [2] was ≤ 5 nM and the IC50 [3] was 1 to 2.5 nM.

With `CCCCOCCn1c(=O)oc2ccc(-c3ccc(C[C@@H](C#N)NC(=O)[C@@H](O)CN(C)C)c(F)c3)cc21` [Compound 146, (2S)—N-[(1S)-2-{4-[3-(2-butoxyethyl)-2-oxo-1,3-benzoxazol-5-yl]-2-fluorophenyl}-1-cyanoethyl]-3-(dimethylamino)-2-hydroxypropanamide] the IC50 [2] was 5 to 15 nM and the IC50 [3] was ≥ 2.5 nM.

`CO[C@@H](CN(C)C)C(=O)N[C@H](C#N)Cc1ccc(-c2ccc3cnn(C4CCN(C5COC5)CC4)c3c2)cc1F` [Compound 288, (2S)—N-[(1S)-1-cyano-2-(2-fluoro-4-{1-[1-(oxetan-3-yl)piperidin-4-yl]indazol-6-yl}phenyl)ethyl]-3-(dimethylamino)-2-methoxypropanamide] gave an IC50 [2] of 5 to 15 nM and an IC50 [3] of 1 to 2.5 nM.

With `Cn1c(=O)oc2ccc(-c3ccc(C[C@@H](C#N)NC(=O)[C@H](N)[C@H]4CCCO4)cc3)cc21` [Compound 211, (2R)-2-amino-N-[(1S)-1-cyano-2-[4-(3-methyl-2-oxo-1,3-benzoxazol-5-yl)phenyl]ethyl]-2-[(2R)-oxolan-2-yl]acetamide] the IC50 [2] was ≥ 15 nM and the IC50 [3] was ≥ 2.5 nM.

With `Cn1c(=O)oc2ccc(-c3ccc(C[C@@H](C#N)NC(=O)[C@@H](O)CN)cc3)cc21` [Compound 110, (2S)-3-amino-N-[(1S)-1-cyano-2-[4-(3-methyl-2-oxo-1,3-benzoxazol-5-yl)phenyl]ethyl]-2-hydroxypropanamide] the IC50 [2] was ≥ 15 nM and the IC50 [3] was ≥ 2.5 nM.

With `Cn1c(=O)oc2ccc(-c3ccc(C[C@@H](C#N)NC(=O)C(N)Cc4ncsc4Cl)cc3)cc21` (stereo partly drawn) [Compound 218, 2-amino-3-(5-chloro-1,3-thiazol-4-yl)-N-[(1S)-1-cyano-2-[4-(3-methyl-2-oxo-1,3-benzoxazol-5-yl)phenyl]ethyl]propanamide] the IC50 [2] was 5 to 15 nM and the IC50 [3] was ≥ 2.5 nM.

In the case of `CNC[C@H](O)C(=O)N[C@H](C#N)Cc1ccc(-c2ccc3oc(=O)n(C)c3c2)cc1` [Compound 111, (2S)—N-[(1S)-1-cyano-2-[4-(3-methyl-2-oxo-1,3-benzoxazol-5-yl)phenyl]ethyl]-2-hydroxy-3-(methylamino)propanamide], the IC50 [2] is reported as ≥ 15 nM and the IC50 [3] is reported as ≥ 2.5 nM.
